Read-outs that look alike come from different tables or passages of the source.
Tests used:
[1] = system: Aβ production in Chinese hamster ovary cells that over-express human APP695 with the London and Swedish mutations; test: Cellular Aβ IC50 determination (Aβ40 sandwich ELISA); details: Cricetulus griseus, CHO, 24 h
memapsin 2 = memapsin 2 (Homo sapiens, UniProt P56817); test: Inhibition of memapsin 2 catalytic activity (Ki); type: biochemical; details: memapsin 2, pH 4, 37° C.
Method: Potency of compounds were determined by measurement of their inhibition of memapsin 2 catalytic activity toward a fluorescent substrate. […] Briefly, assays were performed at pH 4, 37° C., by pre-incubation of memapsin 2 enzyme with compound for 20 minutes. Activity measure was initiated by addition of a fluorogenic substrate FS-2 (Bachem Americas, Torrance, Calif.). Fluorescent signal increase over time was measured as a rate of hydrolysis of the peptide substrate. […]

[2] = read-out: Cell, Aβ40, CHO cells over-expressing human APP695 (London and Swedish mutations), 24 h

memapsin 2, sequence (P56817 46-501): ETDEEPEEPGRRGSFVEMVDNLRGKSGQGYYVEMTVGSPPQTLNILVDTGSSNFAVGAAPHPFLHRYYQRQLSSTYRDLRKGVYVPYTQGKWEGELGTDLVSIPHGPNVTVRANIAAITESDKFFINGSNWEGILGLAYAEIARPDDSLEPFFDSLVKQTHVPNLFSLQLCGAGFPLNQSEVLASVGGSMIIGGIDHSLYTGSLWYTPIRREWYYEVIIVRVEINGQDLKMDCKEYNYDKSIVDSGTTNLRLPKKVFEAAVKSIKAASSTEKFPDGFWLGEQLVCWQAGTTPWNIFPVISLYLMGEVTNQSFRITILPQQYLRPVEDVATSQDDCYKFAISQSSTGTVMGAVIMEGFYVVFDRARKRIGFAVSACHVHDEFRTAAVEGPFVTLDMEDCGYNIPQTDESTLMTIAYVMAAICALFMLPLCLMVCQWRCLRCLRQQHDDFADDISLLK

| IC50 [1, 2] [nM] | Ki (memapsin 2; read-out: M2K) [nM] | Ki (memapsin 2; M2K) [nM] | SMILES | IC50 ([1]; read-out: Cell) [nM] |
| --- | --- | --- | --- | --- |
| < 1000 | < 300 |  | COc1cccc(CNCC(O)C(Cc2ccccc2)NC(=O)c2cccc(C(=O)N(C)Cc3nc(C)oc3C)c2)c1 (stereo not shown) [N1-((2,5-dimethyloxazol-4-yl)methyl)-N3-(3-hydroxy-4-(3-methoxybenzylamino)-1-phenylbutan-2-yl)-N1-methylisophthalamide] |  |
| < 1000 | < 300 |  | COc1cncc(CNCC(O)C(Cc2ccccc2)NC(=O)c2cccc(C(=O)N(C)Cc3nc(C)cs3)c2)c1 (stereo not shown) [N1-(3-hydroxy-4-((5-methoxypyridin-3-yl)methylamino)-1-phenylbutan-2-yl)-N3-methyl-N3-((4-methylthiazol-2-yl)methyl)isophthalamide] |  |
| 1000 to 5000 | > 501 |  | COc1ccccc1CNCC(O)C(Cc1ccccc1)NC(=O)c1cccc(C(=O)N(C)Cc2nc(C)cs2)c1 (stereo not shown) [N1-(3-hydroxy-4-(2-methoxybenzylamino)-1-phenylbutan-2-yl)-N3-methyl-N3-((4-methylthiazol-2-yl)methyl)isophthalamide] |  |
| < 1000 | < 300 |  | CCN(Cc1nc(C)cs1)C(=O)c1cccc(C(=O)NC(Cc2ccccc2)C(O)CNCc2cccc(OC)c2)c1 (stereo not shown) [N1-ethyl-N3-(3-hydroxy-4-(3-methoxybenzylamino)-1-phenylbutan-2-yl)-N1-((4-methylthiazol-2-yl)methyl)isophthalamide] |  |
| < 1000 | < 300 |  | Cc1csc(CN(C)C(=O)c2cccc(C(=O)NC(Cc3ccccc3)C(O)CNCc3cncc(OC(C)C)c3)c2)n1 (stereo not shown) [N1-(3-hydroxy-4-((5-isopropoxypyridin-3-yl)methylamino)-1-phenylbutan-2-yl)-N3-methyl-N3-((4-methylthiazol-2-yl)methyl)isophthalamide] |  |
| < 1000 | < 300 |  | COc1cccc(CNCC(O)C(Cc2ccccc2)NC(=O)c2cccc(C(=O)N(Cc3nc(C)cs3)C(C)C)c2)c1 (stereo not shown) [N1-(3-hydroxy-4-(3-methoxybenzylamino)-1-phenylbutan-2-yl)-N3-isopropyl-N3-((4-methylthiazol-2-yl)methyl)isophthalamide] |  |
| < 1000 | < 300 |  | CCOc1cncc(CNCC(O)C(Cc2ccccc2)NC(=O)c2cccc(C(=O)N(C)Cc3nc(C)cs3)c2)c1 (stereo not shown) [N1-(4-((5-ethoxypyridin-3-yl)methylamino)-3-hydroxy-1-phenylbutan-2-yl)-N3-methyl-N3-((4-methylthiazol-2-yl)methyl)isophthalamide] |  |
|  |  | < 300 | COc1cccc(CNCC(O)C(Cc2ccccc2)NC(=O)c2cccc(C(=O)N(C)Cc3nc(C)co3)c2)c1 (stereo not shown) [N1-(3-hydroxy-4-(3-methoxybenzylamino)-1-phenylbutan-2-yl)-N3-methyl-N3-((4-methyloxazol-2-yl)methyl)isophthalamide] | < 1000 |

The next lines start with the molecule.

| SMILES | IC50 [1, 2] [nM] | Ki (memapsin 2; read-out: M2K) [nM] | Ki (memapsin 2; M2K) [nM] | IC50 ([1]; read-out: Cell) [nM] |
| --- | --- | --- | --- | --- |
| COc1ccc(S(=O)(=O)NCC(O)C(Cc2ccccc2)NC(=O)c2cc(C(=O)NC(C)c3ccccc3)cc(N(C)S(C)(=O)=O)c2)cc1 (stereo not shown) [N1-(3-hydroxy-4-(4-methoxyphenylsulfonamido)-1-phenylbutan-2-yl)-5-(N-methylmethylsulfonamido)-N3-(1-phenylethyl)isophthalamide] | 1000 to 5000 | > 501 |  |  |
| COC1CCCC(CNCC(O)C(Cc2ccccc2)NC(=O)c2cc(C(=O)NC(C)c3ccccc3)cc(N(C)S(C)(=O)=O)c2)C1 (stereo not shown) [N1-(3-hydroxy-4-((3-methoxycyclohexyl)methylamino)-1-phenylbutan-2-yl)-5-(N-methylmethylsulfonamido)-N3-(1-phenylethyl)isophthalamide] | 1000 to 5000 | > 501 |  |  |
| COc1cccc(CNCC(O)C(Cc2cc(F)cc(F)c2)NC(=O)c2cccc(C(=O)N(C)Cc3nc(C)cs3)c2)c1 (stereo not shown) [N1-(1-(3,5-difluorophenyl)-3-hydroxy-4-(3-methoxybenzylamino)butan-2-yl)-N3-methyl-N3-((4-methylthiazol-2-yl)methyl)isophthalamide] | < 1000 | < 300 |  |  |
| COc1cc(CCCNCC(O)C(Cc2ccccc2)NC(=O)c2cc(C(=O)NC(C)c3ccccc3)cc(N(C)S(C)(=O)=O)c2)ccc1C (stereo not shown) [N1-(3-hydroxy-4-(3-(3-methoxy-4-methylphenyl)propylamino)-1-phenylbutan-2-yl)-5-(N-methylmethylsulfonamido)-N3-(1-phenylethyl)isophthalamide] | 1000 to 5000 | < 300 |  |  |
| CC(NC(=O)c1cc(C(=O)NC(Cc2ccccc2)C(O)CNC(CO)c2ccccc2)cc(N(C)S(C)(=O)=O)c1)c1ccccc1 (stereo not shown) [N1-(3-hydroxy-4-(2-hydroxy-1-phenylethylamino)-1-phenylbutan-2-yl)-5-(N-methylmethylsulfonamido)-N3-(1-phenylethyl)isophthalamide] | < 1000 | < 300 |  |  |
| COc1cccc(CNCC(O)C(Cc2ccccc2OC)NC(=O)c2cc(C(=O)NC(C)c3ccccc3)cc(N(C)S(C)(=O)=O)c2)c1 (stereo not shown) [N1-(3-hydroxy-4-(3-methoxybenzylamino)-1-(2-methoxyphenyl)butan-2-yl)-5-(N-methylmethylsulfonamido)-N3-(1-phenylethyl)isophthalamide] | > 5000 | 301 to 500 |  |  |
| COc1cccc(CNCC(O)C(Cc2cscn2)NC(=O)c2cc(C(=O)NC(C)c3ccccc3)cc(N(C)S(C)(=O)=O)c2)c1 (stereo not shown) [N1-(3-hydroxy-4-(3-methoxybenzylamino)-1-(thiazol-4-yl)butan-2-yl)-5-(N-methylmethylsulfonamido)-N3-(1-phenylethyl)isophthalamide] | < 1000 | < 300 |  |  |
| CC(NC(=O)c1cc(C(=O)NC(Cc2ccccc2)C(O)CNCc2nccn2COCC[Si](C)(C)C)cc(N(C)S(C)(=O)=O)c1)c1ccccc1 (stereo not shown) [N1-(3-hydroxy-1-phenyl-4-((1-((2-(trimethylsilyl)ethoxy)methyl)-1H-imidazol-2-yl)methylamino)butan-2-yl)-5-(N-methylmethylsulfonamido)-N3-(1-phenylethyl)isophthalamide] |  | 301 to 500 |  | > 5000 |
| COc1cccc(CN2CCC(CNCC(O)C(Cc3ccccc3)NC(=O)c3cc(C(=O)NC(C)c4ccccc4)cc(N(C)S(C)(=O)=O)c3)CC2)c1 (stereo not shown) [N1-(3-hydroxy-4-((1-(3-methoxybenzyl)piperidin-4-yl)methylamino)-1-phenylbutan-2-yl)-5-(N-methylmethylsulfonamido)-N3-(1-phenylethyl)isophthalamide] | > 5000 | > 501 |  |  |
| Cc1csc(C(C)NCC(O)C(Cc2ccccc2)NC(=O)c2cc(C(=O)NC(C)c3ccccc3)cc(N(C)S(C)(=O)=O)c2)n1 (stereo not shown) [N1-(3-hydroxy-4-(1-(4-methylthiazol-2-yl)ethylamino)-1-phenylbutan-2-yl)-5-(N-methylmethylsulfonamido)-N3-(1-phenylethyl)isophthalamide] | < 1000 | < 300 |  |  |
| COc1ccc(CCNCC(O)C(Cc2ccccc2)NC(=O)c2cc(C(=O)NC(C)c3ccccc3)cc(N(C)S(C)(=O)=O)c2)cc1OC (stereo not shown) [N1-(4-(3,4-dimethoxyphenethylamino)-3-hydroxy-1-phenylbutan-2-yl)-5-(N-methylmethylsulfonamido)-N3-(1-phenylethyl)isophthalamide] | < 1000 | < 300 |  |  |
| CC(NC(=O)c1cc(C(=O)NC(Cc2ccccc2)C(O)CNCc2cccc(OC(F)(F)F)c2)cc(N(C)S(C)(=O)=O)c1)c1ccccc1 (stereo not shown) [N1-(3-hydroxy-1-phenyl-4-(3-(trifluoromethoxy)benzylamino)butan-2-yl)-5-(N-methylmethylsulfonamido)-N3-(1-phenylethyl)isophthalamide] | < 1000 | < 300 |  |  |
| CC(NC(=O)c1cc(C(=O)NC(Cc2ccccc2)C(O)CNCc2cccn2COCC[Si](C)(C)C)cc(N(C)S(C)(=O)=O)c1)c1ccccc1 (stereo not shown) [N1-(3-hydroxy-1-phenyl-4-((1-((2-(trimethylsilyl)ethoxy)methyl)-1H-pyrrol-2-yl)methylamino)butan-2-yl)-5-(N-methylmethylsulfonamido)-N3-(1-phenylethyl)isophthalamide] |  | 301 to 500 |  | < 1000 |
| Cc1csc(CN(C)C(=O)c2cccc(C(=O)NC(Cc3ccccc3)C(O)CNCc3cncc(OCC(C)C)c3)c2)n1 (stereo not shown) [N1-(3-hydroxy-4-((5-isobutoxypyridin-3-yl)methylamino)-1-phenylbutan-2-yl)-N3-methyl-N3-((4-methylthiazol-2-yl)methyl)isophthalamide] | < 1000 | < 300 |  |  |
| C#Cc1cccc(CNCC(O)C(Cc2ccccc2)NC(=O)c2cc(C(=O)NC(C)c3ccccc3)cc(N(C)S(C)(=O)=O)c2)c1 (stereo not shown) [N1-(4-(3-ethynylbenzylamino)-3-hydroxy-1-phenylbutan-2-yl)-5-(N-methylmethylsulfonamido)-N3-(1-phenylethyl)isophthalamide] | < 1000 | < 300 |  |  |
| COc1cccc(CNCC(O)C(Cc2ccccc2)NC(=O)c2cc(CS(C)(=O)=O)cc(C(=O)NC(C)c3ccccc3)c2)c1 (stereo not shown) [N1-(3-hydroxy-4-(3-methoxybenzylamino)-1-phenylbutan-2-yl)-5-(methylsulfonylmethyl)-N3-(1-phenylethyl)isophthalamide] | < 1000 | < 300 |  |  |
| COc1ccc(CCNCC(O)C(Cc2ccccc2)NC(=O)c2cc(C(=O)NC(C)c3ccccc3)cc(N(C)S(C)(=O)=O)c2)cc1O (stereo not shown) [N1-(3-hydroxy-4-(3-hydroxy-4-methoxyphenethylamino)-1-phenylbutan-2-yl)-5-(N-methylmethylsulfonamido)-N3-(1-phenylethyl)isophthalamide] | 1000 to 5000 | < 300 |  |  |
| COc1cccc(CNCC(O)C(Cc2ccccc2)NC(=O)c2cc(C(=O)NCc3nc(CO)co3)cc(N(C)S(C)(=O)=O)c2)c1 (stereo not shown) [N1-(3-hydroxy-4-(3-methoxybenzylamino)-1-phenylbutan-2-yl)-N3-((4-(hydroxymethyl)oxazol-2-yl)methyl)-5-(N-methylmethylsulfonamido)isophthalamide] | > 5000 | 301 to 500 |  |  |
